Experiments:
[1] = Acute oral toxicity, male rats; conditions: rat, in vivo
male rats = assay: Acute inhalation toxicity, male rats (4 hours' exposure); format: in vivo
[2] = system: flies of the species Musca domestica; assay: Percentage of flies lying on their backs after one hour, shaped pieces in a 40 m^3 room (Example 9); format: in vivo; conditions: shaped piece of Example 5 (Thio-DDVP) or 5a (DDVP)
Procedure: One shaped piece produced according to Example 5 and one shaped piece produced according to Example 5a were each pushed into a net-like quiver and suspended from the ceiling in the center of identical rooms of 40 m^3 cubic capacity. Immediately thereafter (0), and after 4, 8 and 12 weeks, 200 flies of the species Musca domestica were in each case exposed in the rooms. […] In each case, the percentage of animals which had fallen on their backs was determined 1 hour after exposing the flies.

Musca domestica = assay: Aerosol test (knock-down of 50% of the animals, LT50); format: in vivo; conditions: comparison experiment, Example 1
Procedure: The following examples explain the invention in more detail, with "parts" denoting parts by weight.
Test animals: Musca domestica
To produce a suitable preparation of active compound, the active compound was mixed, at a range of concentrations, with the stated solvent.
A wire cage which contained about 25 test animals was suspended in the centre of a gas-tight glass chamber of size 1 m^3. After the chamber had been closed again, 2 ml of the preparation of active compound were atomised in the chamber. The condition of the test animals was constantly checked from outside, through the glass walls, and the time required for a knock-down effect on 50% of the animals was determined.
The active compounds, amounts used and time after which 50% of the animals were lying on their backs (LT50) can be seen from the table which follows: […]

warm-blooded animals = assay: Toxicity to warm-blooded animals compared to DDVP; format: in vivo
[3] = age of the shaped pieces 0 weeks
[4] = age of the shaped pieces 4 weeks
[5] = age of the shaped pieces 8 weeks
[6] = age of the shaped pieces 12 weeks

Structure (SMILES)	LD50 [1]	LC50 male rats, acute inhalation toxicity (male rats)	percentage of animals lying on their backs after one hour [2, 3]	percentage of animals lying on their backs after one hour [2, 4]	percentage of animals lying on their backs after one hour [2, 5]	percentage of animals lying on their backs after one hour [2, 6]	insecticidal action compared to DDVP (Musca domestica)	toxicity to warm-blooded animals compared to DDVP (warm-blooded animals)	tolerance of the maximum possible concentration, acute inhalation toxicity (male rats; 477 mg/m^3, maximum possible in the experiment)
COP(=O)(OC)OC=C(Cl)Cl [DDVP, dimethyl-2,2-dichlorovinyl phosphate, reference compound]	62 mg/kg	340 mg/m^3	80 percentage	70 percentage	60 percentage	20 percentage			
COP(=S)(OC)OC=C(Cl)Cl [Thio-DDVP, dimethyl-2,2-dichlorovinyl thiophosphate]	773 mg/kg	> 477 mg/m^3	100 percentage	95 percentage	90 percentage	50 percentage	poorer insecticidal action	lower toxicity to warm-blooded animals	tolerated without symptoms

Source: patent publication US4123518A, “Insecticidal phosphate ester-based solid composition with depot gas action” (priority 1974, dated 1978)
